Measurements taken from patent US10231954B2, “Neurodegenerative therapies” (LYTIX BIOPHARMA AS, priority 2014, dated 2019).

How the values were obtained:
Format in all cases: biochemical
RSK1 = RSK1 (Homo sapiens, UniProt Q15418); assay: Kinase profiling RSK1
Source text: (§1) Any value less that 25 is considered to be highly significant inhibition.

PKA = PKA (Homo sapiens, UniProt P17612); assay: Kinase profiling PKA
Source text: as §1

PKCa = PKCa (Homo sapiens, UniProt P17252); assay: Kinase profiling PKCa
Source text: as §1

MSK1 = MSK1 (Homo sapiens, UniProt O75582); assay: Kinase profiling MSK1
Source text: as §1

SmMLCK = SmMLCK (Homo sapiens, UniProt Q15746); assay: Kinase profiling SmMLCK
Sequence of SmMLCK (Q15746 923-1914): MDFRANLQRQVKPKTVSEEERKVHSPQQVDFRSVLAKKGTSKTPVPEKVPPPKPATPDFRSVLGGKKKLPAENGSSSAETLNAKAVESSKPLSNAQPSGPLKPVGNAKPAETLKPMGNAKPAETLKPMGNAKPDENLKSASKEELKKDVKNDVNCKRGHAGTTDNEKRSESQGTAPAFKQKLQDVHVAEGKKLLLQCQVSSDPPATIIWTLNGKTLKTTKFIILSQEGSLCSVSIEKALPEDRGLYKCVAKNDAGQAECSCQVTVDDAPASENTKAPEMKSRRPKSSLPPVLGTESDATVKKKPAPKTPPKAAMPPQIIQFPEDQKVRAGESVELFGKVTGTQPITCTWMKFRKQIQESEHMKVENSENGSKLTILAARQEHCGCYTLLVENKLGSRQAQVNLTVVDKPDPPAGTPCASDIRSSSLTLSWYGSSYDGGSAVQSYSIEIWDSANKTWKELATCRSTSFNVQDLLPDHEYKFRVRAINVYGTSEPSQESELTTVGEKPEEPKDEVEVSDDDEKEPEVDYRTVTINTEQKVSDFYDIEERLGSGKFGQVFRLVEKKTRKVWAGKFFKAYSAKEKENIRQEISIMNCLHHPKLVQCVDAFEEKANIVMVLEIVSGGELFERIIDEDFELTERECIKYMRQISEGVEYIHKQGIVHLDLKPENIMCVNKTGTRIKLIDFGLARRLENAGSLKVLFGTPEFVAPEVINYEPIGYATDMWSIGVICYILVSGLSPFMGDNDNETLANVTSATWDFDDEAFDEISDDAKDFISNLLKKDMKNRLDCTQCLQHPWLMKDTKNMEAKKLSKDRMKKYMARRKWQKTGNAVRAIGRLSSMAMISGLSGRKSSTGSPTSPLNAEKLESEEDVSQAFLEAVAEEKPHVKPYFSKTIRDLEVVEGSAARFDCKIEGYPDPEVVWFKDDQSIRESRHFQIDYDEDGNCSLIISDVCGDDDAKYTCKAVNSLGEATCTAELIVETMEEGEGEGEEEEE

CK2 = assay: Kinase profiling CK2
Source text: as §1

DYRK1A = DYRK1A (Homo sapiens, UniProt Q13627); assay: DYRK 1A assay (kinase profiling)
Method: Assays are stopped by addition of 5 μl of 0.5 M (3%) orthophosphoric acid and then harvested onto P81 Unifilter plates with a wash buffer of 50 mM orthophosphoric acid.
as §1

NEK6 = NEK6 (Homo sapiens, UniProt Q9HC98); assay: Kinase profiling NEK6
Sequence of NEK6 (Q9HC98 whole entry, species assumed): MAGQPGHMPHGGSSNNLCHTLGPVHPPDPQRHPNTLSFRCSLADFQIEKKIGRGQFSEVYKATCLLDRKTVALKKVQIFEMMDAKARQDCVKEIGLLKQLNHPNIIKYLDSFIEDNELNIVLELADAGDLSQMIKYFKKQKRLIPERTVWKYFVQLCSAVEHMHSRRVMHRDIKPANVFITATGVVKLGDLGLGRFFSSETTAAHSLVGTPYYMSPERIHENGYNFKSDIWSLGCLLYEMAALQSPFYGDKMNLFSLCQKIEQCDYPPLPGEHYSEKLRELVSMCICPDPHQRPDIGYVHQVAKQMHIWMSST
Source text: as §1

TTK = biological target: T1, TTK (Homo sapiens, UniProt P33981); assay: Kinase profiling TTK
T1 sequence (P33981 1-857): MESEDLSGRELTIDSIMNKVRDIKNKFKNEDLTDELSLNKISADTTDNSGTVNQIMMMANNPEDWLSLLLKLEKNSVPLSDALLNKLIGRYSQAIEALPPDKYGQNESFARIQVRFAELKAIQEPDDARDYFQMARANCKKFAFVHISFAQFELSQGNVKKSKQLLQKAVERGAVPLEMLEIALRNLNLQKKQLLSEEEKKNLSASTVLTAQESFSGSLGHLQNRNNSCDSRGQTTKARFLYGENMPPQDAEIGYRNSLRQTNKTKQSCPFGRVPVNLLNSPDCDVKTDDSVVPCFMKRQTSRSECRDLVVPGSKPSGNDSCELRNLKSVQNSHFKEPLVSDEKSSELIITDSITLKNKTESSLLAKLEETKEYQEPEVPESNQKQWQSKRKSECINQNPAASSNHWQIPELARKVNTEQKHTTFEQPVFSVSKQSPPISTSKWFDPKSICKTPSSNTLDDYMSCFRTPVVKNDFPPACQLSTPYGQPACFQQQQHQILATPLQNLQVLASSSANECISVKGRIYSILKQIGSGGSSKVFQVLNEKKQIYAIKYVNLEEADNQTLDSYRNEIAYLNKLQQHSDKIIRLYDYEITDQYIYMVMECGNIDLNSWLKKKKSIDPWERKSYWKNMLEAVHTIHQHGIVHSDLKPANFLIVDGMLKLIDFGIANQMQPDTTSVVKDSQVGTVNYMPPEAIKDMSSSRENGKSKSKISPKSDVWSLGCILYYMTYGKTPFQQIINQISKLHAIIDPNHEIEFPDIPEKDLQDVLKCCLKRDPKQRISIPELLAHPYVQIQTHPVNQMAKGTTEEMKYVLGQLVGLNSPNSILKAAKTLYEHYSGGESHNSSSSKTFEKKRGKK
Source text: as §1

Lck = Lck (Homo sapiens, UniProt P06239); assay: Kinase profiling Lck
Sequence of Lck (P06239 whole entry, species assumed): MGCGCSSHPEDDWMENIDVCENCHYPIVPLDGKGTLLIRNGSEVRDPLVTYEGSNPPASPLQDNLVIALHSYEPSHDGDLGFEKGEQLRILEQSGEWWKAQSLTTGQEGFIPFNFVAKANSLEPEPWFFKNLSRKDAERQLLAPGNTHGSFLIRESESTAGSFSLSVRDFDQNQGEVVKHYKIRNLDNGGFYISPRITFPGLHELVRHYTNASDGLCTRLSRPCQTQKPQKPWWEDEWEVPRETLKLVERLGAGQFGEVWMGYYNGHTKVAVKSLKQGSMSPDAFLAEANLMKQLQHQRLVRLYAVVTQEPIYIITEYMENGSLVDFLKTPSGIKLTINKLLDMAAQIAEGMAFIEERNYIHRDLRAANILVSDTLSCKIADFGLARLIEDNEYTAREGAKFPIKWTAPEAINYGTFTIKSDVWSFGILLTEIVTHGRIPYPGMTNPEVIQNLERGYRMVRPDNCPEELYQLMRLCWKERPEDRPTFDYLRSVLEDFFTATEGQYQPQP
Source text: as §1

JAK2 = JAK2 (Homo sapiens, UniProt O60674); assay: Kinase profiling JAK2
Sequence of JAK2 (O60674 whole entry, species assumed): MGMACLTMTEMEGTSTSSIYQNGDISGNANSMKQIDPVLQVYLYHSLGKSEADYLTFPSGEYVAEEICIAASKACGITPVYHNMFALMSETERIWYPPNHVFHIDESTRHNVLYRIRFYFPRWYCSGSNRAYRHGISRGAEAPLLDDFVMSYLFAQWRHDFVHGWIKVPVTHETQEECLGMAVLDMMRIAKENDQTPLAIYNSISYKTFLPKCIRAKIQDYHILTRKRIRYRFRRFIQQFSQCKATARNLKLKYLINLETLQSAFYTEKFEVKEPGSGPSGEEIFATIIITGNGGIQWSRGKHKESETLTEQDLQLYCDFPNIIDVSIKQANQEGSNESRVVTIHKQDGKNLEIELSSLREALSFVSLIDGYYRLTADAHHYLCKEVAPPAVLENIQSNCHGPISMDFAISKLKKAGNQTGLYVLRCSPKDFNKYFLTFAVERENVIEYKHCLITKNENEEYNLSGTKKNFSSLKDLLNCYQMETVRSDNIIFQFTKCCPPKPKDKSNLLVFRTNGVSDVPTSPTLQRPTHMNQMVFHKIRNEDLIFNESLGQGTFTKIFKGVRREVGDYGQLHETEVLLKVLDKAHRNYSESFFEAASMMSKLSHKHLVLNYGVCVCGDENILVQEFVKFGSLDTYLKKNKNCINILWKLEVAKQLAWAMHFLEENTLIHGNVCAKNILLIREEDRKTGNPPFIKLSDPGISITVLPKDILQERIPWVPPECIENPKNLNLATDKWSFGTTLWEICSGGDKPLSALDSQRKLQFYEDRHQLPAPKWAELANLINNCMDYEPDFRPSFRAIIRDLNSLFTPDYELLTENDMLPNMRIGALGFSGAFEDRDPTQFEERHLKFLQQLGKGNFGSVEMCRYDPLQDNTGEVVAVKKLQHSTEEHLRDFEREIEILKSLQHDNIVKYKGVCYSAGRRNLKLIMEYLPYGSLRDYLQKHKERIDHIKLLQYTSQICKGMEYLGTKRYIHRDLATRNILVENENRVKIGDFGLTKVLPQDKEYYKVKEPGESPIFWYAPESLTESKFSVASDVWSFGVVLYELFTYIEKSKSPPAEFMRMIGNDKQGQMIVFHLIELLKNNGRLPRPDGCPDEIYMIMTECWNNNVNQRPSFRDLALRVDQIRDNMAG
Source text: as §1

SYK = SYK (Homo sapiens, UniProt P43405); assay: Kinase profiling SYK
Source text: as §1

EPH-A2 = EPH-A2 (Homo sapiens, UniProt P29317); assay: Kinase profiling EPH-A2
Sequence of EPH-A2 (P29317 24-976, species assumed): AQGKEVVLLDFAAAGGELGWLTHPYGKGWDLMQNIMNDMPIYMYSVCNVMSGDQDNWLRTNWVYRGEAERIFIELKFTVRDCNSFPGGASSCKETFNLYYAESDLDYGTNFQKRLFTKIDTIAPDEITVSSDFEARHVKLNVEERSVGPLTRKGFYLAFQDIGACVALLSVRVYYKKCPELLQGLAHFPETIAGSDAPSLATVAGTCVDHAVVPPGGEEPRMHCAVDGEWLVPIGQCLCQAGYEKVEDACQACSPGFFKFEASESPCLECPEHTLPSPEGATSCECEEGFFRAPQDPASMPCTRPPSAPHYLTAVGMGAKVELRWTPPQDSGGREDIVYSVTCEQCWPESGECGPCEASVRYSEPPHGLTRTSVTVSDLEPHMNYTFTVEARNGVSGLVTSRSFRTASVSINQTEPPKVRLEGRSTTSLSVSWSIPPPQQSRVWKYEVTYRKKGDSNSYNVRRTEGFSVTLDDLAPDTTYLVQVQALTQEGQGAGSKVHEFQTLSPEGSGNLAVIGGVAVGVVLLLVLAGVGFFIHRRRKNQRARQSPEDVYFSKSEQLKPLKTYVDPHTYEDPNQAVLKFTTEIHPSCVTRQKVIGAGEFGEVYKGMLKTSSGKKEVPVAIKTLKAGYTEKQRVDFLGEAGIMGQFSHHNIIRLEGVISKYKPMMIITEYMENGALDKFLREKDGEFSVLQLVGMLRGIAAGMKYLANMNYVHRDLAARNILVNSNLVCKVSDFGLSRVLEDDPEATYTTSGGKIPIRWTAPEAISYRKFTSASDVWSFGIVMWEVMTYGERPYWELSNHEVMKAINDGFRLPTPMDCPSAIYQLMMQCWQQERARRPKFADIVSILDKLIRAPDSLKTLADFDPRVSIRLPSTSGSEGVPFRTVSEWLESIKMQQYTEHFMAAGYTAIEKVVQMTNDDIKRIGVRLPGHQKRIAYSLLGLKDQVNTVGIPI
Source text: as §1

HER4 = HER4 (Homo sapiens, UniProt Q15303); assay: Kinase profiling HER4
Source text: as §1

IGF-1R = IGF-1R (Homo sapiens, UniProt P08069); assay: Kinase profiling IGF-1R
Source text: as §1

[1] = 100 micromolar inhibitor concentration, 100 is no change
[2] = 100 micromolar inhibitor, 100 = no change

Sequence of RSK1 (Q15418 whole entry, species assumed): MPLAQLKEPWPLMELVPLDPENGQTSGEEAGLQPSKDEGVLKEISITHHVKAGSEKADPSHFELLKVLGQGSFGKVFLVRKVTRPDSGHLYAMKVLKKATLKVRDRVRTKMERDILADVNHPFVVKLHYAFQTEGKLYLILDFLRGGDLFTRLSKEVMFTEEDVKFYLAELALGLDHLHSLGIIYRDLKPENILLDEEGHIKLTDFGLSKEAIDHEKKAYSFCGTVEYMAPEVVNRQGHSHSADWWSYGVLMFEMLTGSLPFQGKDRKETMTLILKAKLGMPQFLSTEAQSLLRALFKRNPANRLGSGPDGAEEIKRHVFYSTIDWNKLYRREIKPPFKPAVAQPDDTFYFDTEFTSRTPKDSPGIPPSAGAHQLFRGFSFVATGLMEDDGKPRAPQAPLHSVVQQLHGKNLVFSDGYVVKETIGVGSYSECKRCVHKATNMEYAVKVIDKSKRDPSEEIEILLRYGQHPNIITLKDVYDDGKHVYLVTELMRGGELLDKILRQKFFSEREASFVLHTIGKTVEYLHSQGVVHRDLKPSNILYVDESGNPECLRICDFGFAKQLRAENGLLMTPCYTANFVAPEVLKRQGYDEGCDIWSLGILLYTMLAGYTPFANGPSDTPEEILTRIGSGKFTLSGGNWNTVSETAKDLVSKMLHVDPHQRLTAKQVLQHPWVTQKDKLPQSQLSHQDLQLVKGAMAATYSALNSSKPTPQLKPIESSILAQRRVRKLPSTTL

SMILES	residual kinase activity, RSK1 (RSK1; [1])	residual kinase activity, PKA (PKA; [1])	residual kinase activity, PKCa (PKCa; [1])	residual kinase activity, MSK1 (MSK1; [1])	residual kinase activity, SmMLCK (SmMLCK; [1])	residual kinase activity, CK2 (CK2; [1])	residual kinase activity, DYRK1A (DYRK1A; [1])	residual kinase activity, NEK6 (NEK6; [1])	residual kinase activity, TTK (TTK; [1])	residual kinase activity, Lck (Lck; [1])	residual kinase activity, JAK2 (JAK2; [1])	residual kinase activity, SYK (SYK; [1])	residual kinase activity, EPH-A2 (EPH-A2; [1])	residual kinase activity, HER4 (HER4; [1])	residual kinase activity, IGF-1R (IGF-1R; [1])	residual kinase activity, RSK1 (RSK1; [2])	residual kinase activity, PKA (PKA; [2])	residual kinase activity, PKCa (PKCa; [2])	residual kinase activity, MSK1 (MSK1; [2])	residual kinase activity, SmMLCK (SmMLCK; [2])	other results
COC(=O)c1cccc(C(=O)Nc2nc3cc(OC)ccc3s2)c1 [Compound 03-108]	70	92	85	88	79	97	51	93	94	100	85	96	76	99	123						
COC(=O)c1cccc(C(=O)Nc2nc3ccc(F)cc3s2)c1 [Compound 03-110]	70	93	109	77	55	86	13	87	35	93	89	79	84	107	96						
COc1ccc2sc(NC(=O)c3cccc(C(N)=O)c3)nc2c1 [Compound 03-113]	87	101	103	65	83	46	51	99	95	111	113	108	96	103	104						
COc1ccc2nc(C(=O)Nc3ccccc3)sc2c1 [Compound 13-03]																77	97	119	97	85	residual kinase activity, CK2 (CK2; [2]): 97; residual kinase activity, DYRK1A (DYRK1A; [2]): 45; residual kinase activity, NEK6 (NEK6; [2]): 107; residual kinase activity, TTK (TTK; [2]): 108; residual kinase activity, Lck (Lck; [2]): 89; residual kinase activity, JAK2 (JAK2; [2]): 93; residual kinase activity, SYK (SYK; [2]): 37; residual kinase activity, EPH-A2 (EPH-A2; [2]): 63; residual kinase activity, HER4 (HER4; [2]): 130; residual kinase activity, IGF-1R (IGF-1R; [2]): 104
CC(=O)Nc1nc2ccc([N+](=O)[O-])cc2s1 [Compound 13-10]						51															remaining activity at 100 µM (RSK1; 100 micromolar inhibitor concentration, 100 is no change, read-out: residual kinase activity, RSK1): 89%; remaining activity at 100 µM (PKA; 100 micromolar inhibitor concentration, 100 is no change, read-out: residual kinase activity, PKA): 99%; remaining activity at 100 µM (PKCa; 100 micromolar inhibitor concentration, 100 is no change, read-out: residual kinase activity, PKCa): 93%; remaining activity at 100 µM (MSK1; 100 micromolar inhibitor concentration, 100 is no change, read-out: residual kinase activity, MSK1): 92%; remaining activity at 100 µM (SmMLCK; 100 micromolar inhibitor concentration, 100 is no change, read-out: residual kinase activity, SmMLCK): 58%; remaining activity at 100 µM (DYRK1A; 100 micromolar inhibitor concentration, 100 is no change, read-out: residual kinase activity, DYRK1A): 6%; remaining activity at 100 µM (NEK6; 100 micromolar inhibitor concentration, 100 is no change, read-out: residual kinase activity, NEK6): 92%; remaining activity at 100 µM (TTK; 100 micromolar inhibitor concentration, 100 is no change, read-out: residual kinase activity, TTK): 55%; remaining activity at 100 µM (Lck; 100 micromolar inhibitor concentration, 100 is no change, read-out: residual kinase activity, Lck): 79%; remaining activity at 100 µM (JAK2; 100 micromolar inhibitor concentration, 100 is no change, read-out: residual kinase activity, JAK2): 91%; remaining activity at 100 µM (SYK; 100 micromolar inhibitor concentration, 100 is no change, read-out: residual kinase activity, SYK): 97%; remaining activity at 100 µM (EPH-A2; 100 micromolar inhibitor concentration, 100 is no change, read-out: residual kinase activity, EPH-A2): 65%; remaining activity at 100 µM (HER4; 100 micromolar inhibitor concentration, 100 is no change, read-out: residual kinase activity, HER4): 81%; remaining activity at 100 µM (IGF-1R; 100 micromolar inhibitor concentration, 100 is no change, read-out: residual kinase activity, IGF-1R): 91%
COc1cccc(NC(=O)Nc2nc3cc(O)ccc3s2)c1 [Compound 13-62]																25	104	102	41	5	residual kinase activity, CK2 (CK2; [2]): 24; residual kinase activity, DYRK1A (DYRK1A; [2]): 7; residual kinase activity, NEK6 (NEK6; [2]): 104; residual kinase activity, TTK (TTK; [2]): 25; residual kinase activity, Lck (Lck; [2]): 11; residual kinase activity, JAK2 (JAK2; [2]): 31; residual kinase activity, SYK (SYK; [2]): 59; residual kinase activity, EPH-A2 (EPH-A2; [2]): 81; residual kinase activity, HER4 (HER4; [2]): 13; residual kinase activity, IGF-1R (IGF-1R; [2]): 62
